This is an account of results in US11040035B2, “3-oxo-2,6-diphenyl-2,3-dihydropyridazine-4-carboxamides” (BAYER PHARMA AKTIENGESELLSCHAFT, priority 2016, dated 2021).

Experiment [1] concerns the target T1, AHR (Homo sapiens, UniProt P35869).
T1 sequence (P35869 11-848): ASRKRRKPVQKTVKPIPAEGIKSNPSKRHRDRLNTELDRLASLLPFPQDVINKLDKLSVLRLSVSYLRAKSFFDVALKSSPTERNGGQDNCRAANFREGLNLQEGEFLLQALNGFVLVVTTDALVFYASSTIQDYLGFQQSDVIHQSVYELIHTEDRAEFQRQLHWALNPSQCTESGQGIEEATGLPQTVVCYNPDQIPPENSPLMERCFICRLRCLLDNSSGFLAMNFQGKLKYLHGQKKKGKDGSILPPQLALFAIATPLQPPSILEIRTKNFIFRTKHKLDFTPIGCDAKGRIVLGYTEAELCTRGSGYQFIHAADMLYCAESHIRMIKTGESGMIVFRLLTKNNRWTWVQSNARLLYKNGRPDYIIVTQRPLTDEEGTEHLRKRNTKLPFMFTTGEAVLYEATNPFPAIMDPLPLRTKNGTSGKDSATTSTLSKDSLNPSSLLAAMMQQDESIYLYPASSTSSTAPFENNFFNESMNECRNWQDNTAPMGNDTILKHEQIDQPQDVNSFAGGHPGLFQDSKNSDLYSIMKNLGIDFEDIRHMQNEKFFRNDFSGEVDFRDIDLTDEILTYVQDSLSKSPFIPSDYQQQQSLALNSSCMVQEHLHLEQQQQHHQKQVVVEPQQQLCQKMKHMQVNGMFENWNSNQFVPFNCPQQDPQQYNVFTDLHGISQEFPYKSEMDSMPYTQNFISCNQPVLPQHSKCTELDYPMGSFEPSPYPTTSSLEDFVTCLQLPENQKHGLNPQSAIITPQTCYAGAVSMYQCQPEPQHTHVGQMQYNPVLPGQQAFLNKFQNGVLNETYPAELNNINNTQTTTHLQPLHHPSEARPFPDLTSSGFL
Nature of the experiment: In vitro assay 2: agonism in human cell line (transactivation assay).

Experiment [2] concerns the target T1, AHR. Nature of the experiment: In vitro assay 1: antagonism in human cell line (transactivation assay, kynurenic acid prestimulated). As to conditions: Assay 1: AHR-luc Hum Antagonism IC50 [M], 150 μM kynurenic acid, 20 hours, firefly luciferase.
The mark [3] stands for this setting: Assay 2: AHR-luc Hum Agonism IC50 [M], no kynurenic acid, 20 hours, firefly luciferase.
[4] abbreviates: read-out: Assay 2: AHR-luc Hum Agonism IC50, no kynurenic acid, 20 hours, firefly luciferase.

A value given as a limit tells only on which side of the number the result lay.

As usually defined, the IC50 is the concentration that gives 50% inhibition. Turning to `CC(CCO)NC(=O)c1cc(-c2ccc(Cl)cc2)nn(-c2cccc(F)c2)c1=O` (racemic) [Example 206, 6-(4-Chlorophenyl)-2-(3-fluorophenyl)-N-[(2RS)-4-hydroxybutan-2-yl]-3-oxo-2,3-dihydropyridazine-4-carboxamide], the IC50 against AHR [1] (setting [3]) is over 2e-05 M; against AHR [2], 6.25e-08 M.
For `O=C(NC(CO)C1CCC1)c1cc(-c2ccc(Cl)cc2)nn(-c2cccc(F)c2)c1=O` (single isomer, unassigned; (+)) [Example 210, (+)-6-(4-Chlorophenyl)-N-(1-cyclobutyl-2-hydroxyethyl)-2-(3-fluorophenyl)-3-oxo-2,3-dihydropyridazine-4-carboxamide] the same measures were over 2e-05 M and 4.12e-07 M.
In the case of `COCC(O)CNC(=O)c1cc(-c2ccc(C)cc2)nn(-c2cccc(F)c2)c1=O` (single isomer, unassigned; enantiomer 2) [Example 18, 2-(3-Fluorophenyl)-N-(2-hydroxy-3-methoxypropyl)-6-(4-methylphenyl)-3-oxo-2,3-dihydropyridazine-4-carboxamide, Enantiomer 2], the results for the 50% inhibitory concentration (IC50) at AHR [1] (setting [4]) and against AHR [2] were over 2e-05 M and 3.39e-07 M, respectively.
In the case of `CC(C)(O)CCNC(=O)c1cc(-c2ccc(Cl)cc2)nn(-c2cccc(F)c2)c1=O` [Example 321, 6-(4-chlorophenyl)-2-(3-fluorophenyl)-N-(3-hydroxy-3-methylbutyl)-3-oxo-2,3-dihydropyridazine-4-carboxamide], the values for the IC50 against AHR [1] (setting [3]) and against AHR [2] were over 2e-05 M and 2.64e-07 M, respectively.
With `O=C(NC(CO)C1CCOCC1)c1cc(-c2ccc(Cl)cc2)nn(-c2cccc(F)c2)c1=O` (stereo not shown) [Example 149], the half-maximal inhibitory concentration (IC50) against AHR [1] (setting [3]) is over 2e-05 M; against AHR [2], 1.87e-07 M.
For `CC(C)[C@@H](CO)NC(=O)c1cc(-c2ccc(OC(F)F)cc2)nn(-c2cccc(F)c2)c1=O` [Example 110, 6-[4-(Difluoromethoxy)phenyl]-2-(3-fluorophenyl)-N-[(2S)-1-hydroxy-3-methylbutan-2-yl]-3-oxo-2,3-dihydropyridazine-4-carboxamide] the same measures were over 2e-05 M and 1.79e-08 M.
For `O=C(NC(CO)C1CCCO1)c1cc(-c2ccc(Cl)cc2)nn(-c2cccc(F)c2)c1=O` (single isomer, unassigned) [Example 316, 1,4-anhydro-5-({[6-(4-chlorophenyl)-2-(3-fluorophenyl)-3-oxo-2,3-dihydropyridazin-4-yl]carbonyl}amino)-2,3,5-trideoxyhexitol] the same measures were over 2e-05 M and 3.7e-07 M.
For `O=C(NC(CO)C1CCOC1)c1cc(-c2ccc(Cl)cc2)nn(-c2cccc(F)c2)c1=O` (stereo not shown) [Example 38, 6-(4-Chlorophenyl)-2-(3-fluorophenyl)-N-[2-hydroxy-1-(tetrahydrofuran-3-yl)ethyl]-3-oxo-2,3-dihydropyridazine-4-carboxamide] the same measures were over 2e-05 M and 3.87e-08 M.
With `C[C@H](CO)NC(=O)c1cc(-c2ccc(C(F)(F)F)cc2)nn(-c2cccc(F)c2)c1=O` [Example 238, 2-(3-Fluorophenyl)-N-[(2R)-1-hydroxypropan-2-yl]-3-oxo-6-[4-(trifluoromethyl)phenyl]-2,3-dihydropryridazine-4-carboxamide], the figures for the IC50 against AHR [1] (setting [3]) and against AHR [2] were over 2e-05 M and 9.88e-08 M, respectively.
As to `Cc1ccc(-c2cc(C(=O)NCC(C)O)c(=O)n(-c3cccc(F)c3)n2)cc1` (single isomer, unassigned; enantiomer 2) [Example 15, 2-(3-Fluorophenyl)-N-(2-hydroxypropyl)-6-(4-methylphenyl)-3-oxo-2,3-dihydropyridazine-4-carboxamide, Enantiomer 2], the IC50 at AHR [1] (setting [4]) was over 2e-05 M; on AHR [2] it was 2.62e-07 M.
In the case of `C[C@@H](CO)NC(=O)c1cc(-c2ccc(Cl)cc2)nn(-c2cccc(C#N)c2)c1=O` [Example 400, 6-(4-chlorophenyl)-2-(3-cyanophenyl)-N-[(2S)-1-hydroxypropan-2-yl]-3-oxo-2,3-dihydropyridazine-4-carboxamide], the IC50 on AHR [1] (setting [3]) was over 2e-05 M; on AHR [2] it was 8e-07 M.
The matching figures for `O=C(NC(CO)CO)c1cc(-c2ccc(Cl)cc2)nn(-c2cccc(F)c2)c1=O` [Example 228, 6-(4-Chlorophenyl)-N-(1,3-dihydroxypropan-2-yl)-2-(3-fluorophenyl)-3-oxo-2,3-dihydropyridazine-4-carboxamide]: over 2e-05 M and 3.35e-07 M.
For `COc1ccc(-c2cc(C(=O)N[C@@H]3CCCC[C@@H]3O)c(=O)n(-c3cccc(F)c3)n2)cc1` (single isomer, unassigned) [Example 108, 2-(3-Fluorophenyl)-N-(cis-2-hydroxycyclohexyl)-6-(4-methoxyphenyl)-3-oxo-2,3-dihydropyridazine-4-carboxamide], the IC50 on AHR [1] (setting [4]) was over 2e-05 M; on AHR [2] it was 2.4e-07 M.
As for `CC[C@@H](CO)NC(=O)c1cc(-c2ccc(OC)cc2)nn(-c2cccc(F)c2)c1=O` [Example 298, 2-(3-Fluorophenyl)-N-[(2S)-1-hydroxybutan-2-yl]-6-(4-methoxyphenyl)-3-oxo-2,3-dihydropyridazine-4-carboxamide], the IC50 against AHR [1] (setting [3]) was over 2e-05 M; on AHR [2], 3.18e-08 M.
For `CC(C)OC[C@H](NC(=O)c1cc(-c2ccc(Cl)cc2)nn(-c2cccc(F)c2)c1=O)C(C)(C)O` [Example 390, 6-(4-chlorophenyl)-2-(3-fluorophenyl)-N-[(2S)-3-hydroxy-1-isopropoxy-3-methylbutan-2-yl]-3-oxo-2,3-dihydropyridazine-4-carboxamide] the same measures were over 2e-05 M and 9.4e-07 M.
The matching figures for `O=C(N[C@@H]1CC[C@@H]1O)c1cc(-c2ccc(Cl)cc2)nn(-c2cccc(F)c2)c1=O` (single isomer, unassigned) [Example 358]: over 2e-05 M and 1.15e-07 M.
Consider `O=C(N[C@H]1COC[C@H]1O)c1cc(-c2ccc(Cl)cc2)nn(-c2cccc(F)c2)c1=O` (single isomer, unassigned) [Example 385, 6-(4-chlorophenyl)-2-(3-fluorophenyl)-N-[cis-4-hydroxytetrahydrofuran-3-yl]-3-oxo-2,3-dihydropyridazine-4-carboxamide], for which the IC50 is over 2e-05 M on AHR [1] (setting [4]) and 8.8e-08 M at AHR [2].
Turning to `C[C@@H](O)CNC(=O)c1cc(-c2ccc(Cl)cc2)nn(-c2cccc(F)c2)c1=O` [Example 35, 6-(4-Chlorophenyl)-2-(3-fluorophenyl)-N-[(2R)-2-hydroxypropyl]-3-oxo-2,3-dihydropyridazine-4-carboxamide], the IC50 against AHR [1] (setting [3]) was over 2e-05 M; on AHR [2], 1.92e-07 M.
On to `CC(C)C(O)CNC(=O)c1cc(-c2ccc(Cl)cc2)nn(-c2cccc(F)c2)c1=O` (stereo not shown) [Example 28, 6-(4-Chlorophenyl)-2-(3-fluorophenyl)-N-(2-hydroxy-3-methylbutyl)-3-oxo-2,3-dihydropyridazine-4-carboxamide], for which the IC50 is over 2e-05 M at AHR [1] (setting [3]) and 8.85e-08 M against AHR [2].
The matching figures for `COc1ccc(-c2cc(C(=O)N[C@@H]3CCCC[C@H]3O)c(=O)n(-c3cccc(F)c3)n2)cc1` (relative stereo) [Example 152, 2-(3-Fluorophenyl)-N-trans-2-hydroxycyclohexyl-6-(4-methoxyphenyl)-3-oxo-2,3-dihydropyridazine-4-carboxamide]: over 2e-05 M and 1.32e-07 M.
Consider `CC(CCO)NC(=O)c1cc(-c2ccc(Cl)cc2)nn(-c2cccc(F)c2)c1=O` (single isomer, unassigned; (-)) [Example 208, (−)-6-(4-Chlorophenyl)-2-(3-fluorophenyl)-N-(4-hydroxybutan-2-yl)-3-oxo-2,3-dihydropyridazine-4-carboxamide], for which the IC50 on AHR [1] (setting [4]) was over 2e-05 M; at AHR [2], 2e-07 M.
Turning to `O=C(NCC(O)C1CC1)c1cc(-c2ccc(Cl)cc2)nn(-c2cccc(F)c2)c1=O` (single isomer, unassigned; (-)) [Example 191, (−)-6-(4-Chlorophenyl)-N-(2-cyclopropyl-2-hydroxyethyl)-2-(3-fluorophenyl)-3-oxo-2,3-dihydropyridazine-4-carboxamide], the IC50 against AHR [1] (setting [3]) is over 2e-05 M; on AHR [2], 1.1e-07 M.
Consider `CC(C)C(O)CNC(=O)c1cc(-c2ccc(C(F)(F)F)cc2)nn(-c2cccc(F)c2)c1=O` (racemic) [Example 241, 2-(3-Fluorophenyl)-N-[(2RS)-2-hydroxy-3-methylbutyl]-3-oxo-6-[4-(trifluoromethyl)phenyl]-2,3-dihydropyridazine-4-carboxamide], for which the figures for the IC50 at AHR [1] (setting [3]) and at AHR [2] were 1.16e-07 M and over 2e-05 M, respectively.
